Assay results: PubChem BioAssay (NCI)
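All cell lines were grown in 96-well plates and treated with compound for 48 hours. TGI: concentration producing complete growth inhibition.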

What was measured:
Assay in all cases: NCI anticancer screen, dose series, 48 h
IGROV1 ovarian = test system: IGROV1 ovarian
DMS 114 small cell lung = test system: DMS 114 small cell lung
XF 498 CNS = test system: XF 498 CNS
SNB-75 CNS = test system: SNB-75 CNS
TK-10 renal = test system: TK-10 renal
HCT-116 colon = test system: HCT-116 colon
SNB-19 CNS = test system: SNB-19 CNS
SF-539 CNS = test system: SF-539 CNS
HS 578T breast = test system: HS 578T breast
PC-3 prostate = test system: PC-3 prostate

**Q.** Which results are given for `O=[P+](O)c1ccccn1`?
**A.** TGI (IGROV1 ovarian): > 100 µM; TGI (DMS 114 small cell lung): > 100 µM; TGI (XF 498 CNS): > 100 µM; TGI (SNB-75 CNS): > 100 µM; TGI (TK-10 renal): > 100 µM; TGI (HCT-116 colon): > 100 µM; TGI (SNB-19 CNS): > 100 µM; TGI (SF-539 CNS): > 100 µM

**Q.** Which TGI (IGROV1 ovarian) does the source give for `Cc1cccc(C)c1NC(=O)CCc1nnc2s/c(=C\c3ccc(N(C)C)cc3)c(=O)n12` here?
**A.** > 100 µM

**Q.** What about the TGI (DMS 114 small cell lung) of the same compound?
**A.** > 100 µM

**Q.** And the TGI (XF 498 CNS)?
**A.** > 100 µM

**Q.** And the TGI (SNB-75 CNS)?
**A.** > 100 µM

**Q.** What about the TGI (TK-10 renal) of the same compound?
**A.** > 100 µM

**Q.** What about the TGI (HCT-116 colon) of the same compound?
**A.** > 100 µM

**Q.** What about the TGI (SNB-19 CNS) of the same compound?
**A.** > 100 µM

**Q.** And the TGI (SF-539 CNS)?
**A.** > 100 µM

**Q.** What does the source list for `O=C(Cc1nc2sc3c(c2c(=O)[nH]1)CCCC3)Nc1ccccc1`?
**A.** TGI (IGROV1 ovarian): > 100 µM; TGI (DMS 114 small cell lung): > 100 µM; TGI (XF 498 CNS): > 100 µM; TGI (SNB-75 CNS): 53.6 µM; TGI (TK-10 renal): > 100 µM; TGI (HCT-116 colon): > 100 µM; TGI (SNB-19 CNS): > 100 µM; TGI (SF-539 CNS): > 100 µM

**Q.** What does the source list for `CCCCC(C)/C=C/C(=O)C1=C(O)/C(=C/C(=O)O)OC1=O` (stereo unspecified)?
**A.** TGI (IGROV1 ovarian): > 100 µM; TGI (DMS 114 small cell lung): > 100 µM; TGI (XF 498 CNS): > 100 µM; TGI (SNB-75 CNS): > 100 µM; TGI (TK-10 renal): > 100 µM; TGI (HCT-116 colon): > 100 µM; TGI (SNB-19 CNS): > 100 µM; TGI (SF-539 CNS): > 100 µM

**Q.** What does the source list for `C[N+](C)(C)CC1CCC(C[N+](C)(C)C)C1=O` (stereo unspecified)?
**A.** TGI (IGROV1 ovarian): 13.6 µM; TGI (DMS 114 small cell lung): 6.74 µM; TGI (XF 498 CNS): 3.74 µM; TGI (SNB-75 CNS): 3.51 µM; TGI (TK-10 renal): 6.39 µM; TGI (HCT-116 colon): 3.44 µM; TGI (HS 578T breast): 91.5 µM; TGI (SNB-19 CNS): 33.5 µM; TGI (PC-3 prostate): 31.3 µM; TGI (SF-539 CNS): 15.5 µM

**Q.** With `COC(=O)CCC(=O)N1C/C(=C\c2ccccc2)C(=O)/C(=C/c2ccccc2)C1` as the compound, how does the TGI (IGROV1 ovarian) read?
**A.** 3.94 µM

**Q.** And the TGI (DMS 114 small cell lung)?
**A.** 3.56 µM

**Q.** And the TGI (XF 498 CNS)?
**A.** 19.2 µM

**Q.** What about the TGI (SNB-75 CNS) of the same compound?
**A.** 5.27 µM

**Q.** And the TGI (TK-10 renal)?
**A.** 13.2 µM

**Q.** What about the TGI (HCT-116 colon) of the same compound?
**A.** 1.42 µM

**Q.** And the TGI (SNB-19 CNS)?
**A.** 14.5 µM

**Q.** And the TGI (SF-539 CNS)?
**A.** 7.53 µM

**Q.** Which TGI (IGROV1 ovarian) does the source give for `N#Cc1ccc(/C=C(/C(=O)c2ccccc2)c2ccccc2)cc1` here?
**A.** > 57.4 µM

**Q.** And the TGI (DMS 114 small cell lung)?
**A.** 31.5 µM

**Q.** What about the TGI (XF 498 CNS) of the same compound?
**A.** 16.4 µM

**Q.** And the TGI (SNB-75 CNS)?
**A.** > 57.2 µM

**Q.** And the TGI (TK-10 renal)?
**A.** 57 µM

**Q.** What about the TGI (HCT-116 colon) of the same compound?
**A.** 11.3 µM

**Q.** And the TGI (SNB-19 CNS)?
**A.** 50.1 µM

**Q.** And the TGI (SF-539 CNS)?
**A.** 42 µM

**Q.** `CC(C)c1ccc(C2NC(=S)NC3=C2c2ccccc2C3=O)cc1` (stereo unspecified) was tested. Which TGI (IGROV1 ovarian) did it give?
**A.** > 54.6 µM

**Q.** And the TGI (DMS 114 small cell lung)?
**A.** 58.8 µM

**Q.** And the TGI (XF 498 CNS)?
**A.** > 100 µM

**Q.** And the TGI (SNB-75 CNS)?
**A.** 36.7 µM

**Q.** What about the TGI (TK-10 renal) of the same compound?
**A.** > 57.1 µM

**Q.** What about the TGI (HCT-116 colon) of the same compound?
**A.** > 58.4 µM

**Q.** What about the TGI (HS 578T breast) of the same compound?
**A.** 42.1 µM

**Q.** What about the TGI (SNB-19 CNS) of the same compound?
**A.** > 55.2 µM

**Q.** And the TGI (PC-3 prostate)?
**A.** 23.5 µM

**Q.** And the TGI (SF-539 CNS)?
**A.** 37.8 µM

**Q.** Which results are given for `Cc1cccc(C)c1NC(=O)CCC/C(CC(=O)c1ccc(F)cc1)=N\NC(=O)C(=O)NN`?
**A.** TGI (IGROV1 ovarian): > 100 µM; TGI (DMS 114 small cell lung): > 100 µM; TGI (XF 498 CNS): > 100 µM; TGI (SNB-75 CNS): > 100 µM; TGI (TK-10 renal): > 100 µM; TGI (HCT-116 colon): > 100 µM; TGI (SNB-19 CNS): > 100 µM; TGI (SF-539 CNS): > 100 µM

**Q.** How did the TGI (IGROV1 ovarian) turn out when `CC1=C(C(=O)NCc2ccccc2)C(c2ccc(Cl)c(Cl)c2)C(C(=O)NCc2ccccc2)=C(C)N1` was run?
**A.** > 100 µM

**Q.** What about the TGI (DMS 114 small cell lung) of the same compound?
**A.** > 100 µM

**Q.** What about the TGI (XF 498 CNS) of the same compound?
**A.** > 100 µM

**Q.** And the TGI (SNB-75 CNS)?
**A.** > 100 µM

**Q.** And the TGI (TK-10 renal)?
**A.** > 100 µM

**Q.** What about the TGI (HCT-116 colon) of the same compound?
**A.** > 100 µM

**Q.** What about the TGI (SNB-19 CNS) of the same compound?
**A.** > 100 µM

**Q.** What about the TGI (SF-539 CNS) of the same compound?
**A.** > 100 µM

**Q.** Which results are given for `Cc1ccc(S(=O)(=O)NC(=O)NCCc2ccccc2)cc1`?
**A.** TGI (IGROV1 ovarian): > 100 µM; TGI (DMS 114 small cell lung): > 100 µM; TGI (XF 498 CNS): > 100 µM; TGI (SNB-75 CNS): > 100 µM; TGI (TK-10 renal): > 100 µM; TGI (HCT-116 colon): > 100 µM; TGI (SNB-19 CNS): > 100 µM; TGI (SF-539 CNS): > 100 µM

**Q.** What does the source list for `CCCCCCCCOCC(O)CO` (stereo unspecified)?
**A.** TGI (IGROV1 ovarian): > 100 µM; TGI (DMS 114 small cell lung): > 100 µM; TGI (XF 498 CNS): > 100 µM; TGI (SNB-75 CNS): > 100 µM; TGI (TK-10 renal): > 100 µM; TGI (HCT-116 colon): > 100 µM; TGI (SNB-19 CNS): > 100 µM; TGI (SF-539 CNS): > 100 µM

**Q.** With `CC[C@@]1(OC(=O)C(N)CCCCN)C(=O)OCc2c1cc1n(c2=O)Cc2cc3ccccc3nc2-1` (stereo partly specified) as the compound, how does the TGI (IGROV1 ovarian) read?
**A.** 2.37 µM

**Q.** And the TGI (DMS 114 small cell lung)?
**A.** 0.263 µM

**Q.** And the TGI (XF 498 CNS)?
**A.** 1.78 µM

**Q.** What about the TGI (SNB-75 CNS) of the same compound?
**A.** 0.609 µM

**Q.** And the TGI (TK-10 renal)?
**A.** 65.9 µM

**Q.** What about the TGI (HCT-116 colon) of the same compound?
**A.** 0.495 µM

**Q.** And the TGI (HS 578T breast)?
**A.** > 100 µM

**Q.** What about the TGI (SNB-19 CNS) of the same compound?
**A.** 12.2 µM

**Q.** What about the TGI (PC-3 prostate) of the same compound?
**A.** > 100 µM

**Q.** And the TGI (SF-539 CNS)?
**A.** 0.149 µM

**Q.** For `Nc1ccc(-c2cc(C(=O)Nc3nccs3)[nH]c(=S)n2)cc1`, which TGI (IGROV1 ovarian) is on record?
**A.** > 100 µM

**Q.** And the TGI (DMS 114 small cell lung)?
**A.** > 100 µM

**Q.** And the TGI (XF 498 CNS)?
**A.** > 100 µM

**Q.** And the TGI (SNB-75 CNS)?
**A.** > 100 µM

**Q.** And the TGI (TK-10 renal)?
**A.** > 100 µM

**Q.** And the TGI (HCT-116 colon)?
**A.** > 100 µM

**Q.** And the TGI (SNB-19 CNS)?
**A.** > 100 µM

**Q.** What about the TGI (SF-539 CNS) of the same compound?
**A.** > 100 µM

**Q.** How did the TGI (IGROV1 ovarian) turn out when `O=C(O)[C@@H]1OCCOCCO[C@@H](C(=O)O)[C@H](C(=O)O)OCCOCCO[C@H]1C(=O)O` was run?
**A.** > 100 µM

**Q.** What about the TGI (DMS 114 small cell lung) of the same compound?
**A.** > 92.3 µM

**Q.** What about the TGI (XF 498 CNS) of the same compound?
**A.** > 100 µM

**Q.** What about the TGI (SNB-75 CNS) of the same compound?
**A.** > 100 µM

**Q.** What about the TGI (TK-10 renal) of the same compound?
**A.** > 100 µM

**Q.** And the TGI (HCT-116 colon)?
**A.** > 100 µM

**Q.** And the TGI (SNB-19 CNS)?
**A.** > 100 µM

**Q.** And the TGI (SF-539 CNS)?
**A.** > 100 µM

**Q.** How did the TGI (IGROV1 ovarian) turn out when `C1OC1CN1CCN(CC2CO2)CC1` (stereo unspecified) was run?
**A.** > 100 µM

**Q.** What about the TGI (DMS 114 small cell lung) of the same compound?
**A.** > 100 µM

**Q.** And the TGI (XF 498 CNS)?
**A.** > 100 µM

**Q.** What about the TGI (SNB-75 CNS) of the same compound?
**A.** > 100 µM

**Q.** And the TGI (TK-10 renal)?
**A.** > 100 µM

**Q.** And the TGI (HCT-116 colon)?
**A.** > 100 µM

**Q.** And the TGI (SNB-19 CNS)?
**A.** > 100 µM

**Q.** And the TGI (SF-539 CNS)?
**A.** > 100 µM

**Q.** What does the source list for `c1ccc(CN2CCc3[nH]c4ccccc4c3C2)cc1`?
**A.** TGI (IGROV1 ovarian): > 79.5 µM; TGI (DMS 114 small cell lung): 47.3 µM; TGI (XF 498 CNS): 68.6 µM; TGI (SNB-75 CNS): > 100 µM; TGI (TK-10 renal): > 71 µM; TGI (HCT-116 colon): 43.6 µM; TGI (HS 578T breast): 79.9 µM; TGI (SNB-19 CNS): > 95.7 µM; TGI (PC-3 prostate): > 100 µM; TGI (SF-539 CNS): 56.2 µM

**Q.** What does the source list for `O=C1CC(c2c(-c3ccccc3)[nH]c3ccccc23)C(=O)N1c1ccccc1` (stereo unspecified)?
**A.** TGI (IGROV1 ovarian): > 100 µM; TGI (DMS 114 small cell lung): > 100 µM; TGI (XF 498 CNS): > 100 µM; TGI (SNB-75 CNS): > 100 µM; TGI (TK-10 renal): > 100 µM; TGI (HCT-116 colon): > 100 µM; TGI (SF-539 CNS): > 100 µM
